Experimental data: patent US20170304388A1, “NEW INDICATION OF CARDIOVASCULAR DRUGS FOR PREPARATION OF CANCER INHIBITION PHARMACEUTICAL COMPOSITION” (LAUNX BIOMEDICAL CO., LTD., priority 2014, published 2017)

Key:
Type in all cases: cell-based
[1] = test system: HeLa (Cervix Adenocarcinoma); assay: Cell viability analysis (WST-1), HeLa; settings: Homo sapiens, HeLa, 72 h, Table 4, repeated experiments, drug 10 μM, WST-1, read-out: survival rate (viability) of cancer cells, HeLa
SAS = assay: Cell viability analysis (WST-1), SAS; settings: 72 h, Table 4, repeated experiments, drug 10 μM, read-out: survival rate (viability) of cancer cells, SAS
Procedure, shortened: (§1)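 3000 cells/well; drug 10 μM, 72 h; diluted WST-1 (medium:stock 9:1), 37° C, 30–90 min; OD450 nm read, survival rate calculated.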

TOV-21G = assay: Cell viability analysis (WST-1), TOV-21G; settings: Homo sapiens, TOV21G, 72 h, Table 4, repeated experiments, drug 10 μM, read-out: survival rate (viability) of cancer cells, TOV-21G
Experimental: (§2) Subculture the different types of cancer cells. The cancer cells includes lung cancer, gastric cancer, hepatic cancer, colon cancer, skin cancer, cervical cancer, prostate cancer, bladder cancer, breast cancer, leukemia, pancreatic cancer, ovarian cancer, tongue cancer, osteosarcoma, and renal cancer. The cell numbers were counted and reseed as 2×10^6 in cell culture plate/flask. Then, the culture medium for culturing the cell lines was added to a volume of 10 ml, and the cells were cultured for 2-3 days. Then, the cells were suspended for loading into 96-well plates. The cell number was 3000 cells and the volume of the culture medium was 100 ul each well.
(§3) Removing the original culture medium from 96-well plate. Then add 100 μl of commercially drug at a concentration of 10 μM per well. After 72 hours, add the diluted WST-1 reagent to the well with 100 μl/well, and the diluted WST-1 reagent was acquired from the dilution of 9:1 medium and WST-1 stock reagent. Finally, the total volume of each well are 200 μl/well. Culture the 96-well plate at 37° C. for 30 to 90 minutes. Detecting and calculating the survival rate of each cancer cells with an ELISA reader at OD450 nm. The lower viability of cancer cells represents better inhibition effect via the drugs. Otherwise, the higher viability of cancer cells represents worse inhibition effect via the drugs.
(§4) According to the above mentioned cardiovascular drugs for cancer growth inhibition in Table 3, the inventors took the repeat experiments for the cardiovascular drugs to check the growth inhibitory effects of cancer cells by the cardiovascular drugs. […] 4.

cancer cell lines = assay: Growth inhibitory effects on the panel of cancer cell lines; settings: drug 10 μM, 72 hours, WST-1
[2] = test system: HepG2 (Hepatocellular Carcinoma); assay: Cell viability analysis (WST-1), HepG2; settings: Homo sapiens, HepG2, 72 h, Table 4, repeated experiments, drug 10 μM, WST-1, read-out: survival rate (viability) of cancer cells, HepG2
[3] = test system: MCF7 (Mammary Gland, Adenocarcinoma); assay: Cell viability analysis (WST-1), MCF7; settings: Homo sapiens, MCF7, 72 h, Table 4, repeated experiments, drug 10 μM, WST-1, read-out: survival rate (viability) of cancer cells, MCF-7
C-33A = assay: Cell viability analysis (WST-1), C-33A; settings: Homo sapiens, C-33-A, 72 h, Table 4, repeated experiments, drug 10 μM, read-out: survival rate (viability) of cancer cells, C-33A
Experimental: as §2, §3, §4

[4] = test system: MKN-45 (Gastric Adenocarcinoma); assay: Cell viability analysis (WST-1), MKN-45; settings: Homo sapiens, MKN-45, 72 h, Table 4, repeated experiments, drug 10 μM, WST-1, read-out: survival rate (viability) of cancer cells, MKN-45
[5] = test system: A549 (Lung Adenocarcinoma); assay: Cell viability analysis (WST-1), A549; settings: Homo sapiens, A549, 72 h, Table 4, repeated experiments, drug 10 μM, WST-1, read-out: survival rate (viability) of cancer cells, A549
[6] = test system: LoVo (Colorectal Adenocarcinoma); assay: Cell viability analysis (WST-1), LoVo; settings: Homo sapiens, LoVo, 72 h, Table 4, repeated experiments, drug 10 μM, WST-1, read-out: survival rate (viability) of cancer cells, LoVo
Hep3B = assay: Cell viability analysis (WST-1), Hep3B; settings: Homo sapiens, Hep3B, 72 h, Table 4, repeated experiments, drug 10 μM, read-out: survival rate (viability) of cancer cells, Hep3B
Experimental: as §2, §3, §4

[7] = test system: PC3 (Prostate Adenocarcinoma); assay: Cell viability analysis (WST-1), PC3; settings: 72 h, Table 4, repeated experiments, drug 10 μM, WST-1, read-out: survival rate (viability) of cancer cells, PC-3
[8] = test system: H1650 (Lung Adenocarcinoma); assay: Cell viability analysis (WST-1), H1650; settings: Homo sapiens, NCI-H1650, 72 h, Table 4, repeated experiments, drug 10 μM, WST-1, read-out: survival rate (viability) of cancer cells, H1650
AsPC-1 = assay: Cell viability analysis (WST-1), AsPC-1; settings: Homo sapiens, ASPC1, 72 h, Table 4, repeated experiments, drug 10 μM, read-out: survival rate (viability) of cancer cells, AsPC-1
Procedure, shortened: as §1

T24 = assay: Cell viability analysis (WST-1), T24; settings: Homo sapiens, T-24, 72 h, Table 4, repeated experiments, drug 10 μM, read-out: survival rate (viability) of cancer cells, T24
Experimental: as §2, §3, §4

[9] = test system: TSGH-8301 (Urinary Bladder Carcinoma); assay: Cell viability analysis (WST-1), TSGH-8301; settings: 72 h, Table 4, repeated experiments, drug 10 μM, WST-1, read-out: survival rate (viability) of cancer cells, TSGH-8301
NIH-OVCAR-3 = assay: Cell viability analysis (WST-1), NIH-OVCAR-3; settings: Homo sapiens, OVCAR-3, 72 h, Table 4, repeated experiments, drug 10 μM, read-out: survival rate (viability) of cancer cells, NIH-OVCAR-3
Experimental: as §2, §3, §4

[10] = test system: AGS (Gastric Adenocarcinoma); assay: Cell viability analysis (WST-1), AGS; settings: 72 h, Table 4, repeated experiments, drug 10 μM, WST-1, read-out: survival rate (viability) of cancer cells, AGS
U2OS = assay: Cell viability analysis (WST-1), U2OS; settings: Homo sapiens, U2OS, 72 h, Table 4, repeated experiments, drug 10 μM, read-out: survival rate (viability) of cancer cells, U2OS
Experimental: as §2, §3, §4

MDA-MB231 = assay: Cell viability analysis (WST-1), MDA-MB231; settings: Homo sapiens, MDA-MB-231, 72 h, Table 4, repeated experiments, drug 10 μM, read-out: survival rate (viability) of cancer cells, MDA-MB231
786-O = assay: Cell viability analysis (WST-1), 786-O; settings: Homo sapiens, 786-0, 72 h, Table 4, repeated experiments, drug 10 μM, read-out: survival rate (viability) of cancer cells, 786-O
Experimental: as §2, §3, §4

BxPC-3 = assay: Cell viability analysis (WST-1), BxPC-3; settings: Homo sapiens, BXPC-3, 72 h, Table 4, repeated experiments, drug 10 μM, read-out: survival rate (viability) of cancer cells, BxPC-3
Procedure, shortened: as §1

BCC = assay: Cell viability analysis (WST-1), BCC; settings: BCC, 72 h, Table 4, repeated experiments, drug 10 μM, read-out: survival rate (viability) of cancer cells, BCC
[11] = test system: A375 (Amelanotic Melanoma); assay: Cell viability analysis (WST-1), A375; settings: Homo sapiens, A-375, 72 h, Table 4, repeated experiments, drug 10 μM, WST-1, read-out: survival rate (viability) of cancer cells, A375
[12] = test system: HCT116 (Colorectal Carcinoma); assay: Cell viability analysis (WST-1), HCT116; settings: Homo sapiens, HCT-116, 72 h, Table 4, repeated experiments, drug 10 μM, WST-1, read-out: survival rate (viability) of cancer cells, HCT116

| Structure (SMILES) | viability at 10 µM [1] | viability at 10 µM (SAS) | viability at 10 µM (TOV-21G) | inhibition effect on different cancer cell lines (in words) (cancer cell lines) | viability at 10 µM [2] | viability at 10 µM [3] | viability at 10 µM (C-33A) | viability at 10 µM [4] | viability at 10 µM [5] | viability at 10 µM [6] | viability at 10 µM (Hep3B) | viability at 10 µM [7] | viability at 10 µM [8] | viability at 10 µM (AsPC-1) | viability at 10 µM (T24) | viability at 10 µM [9] | viability at 10 µM (NIH-OVCAR-3) | viability at 10 µM [10] | viability at 10 µM (U2OS) | viability at 10 µM (MDA-MB231) | further results |
| --- | --- | --- | --- | --- | --- | --- | --- | --- | --- | --- | --- | --- | --- | --- | --- | --- | --- | --- | --- | --- | --- |
| COCCOC(=O)C1=C(C)NC(C)=C(C(=O)OC/C=C/c2ccccc2)C1c1cccc([N+](=O)[O-])c1 (centres unmarked) [Cilnidipine] | 64.3% | 38.9% | 62.9% | significant inhibition effect | 77.1% | 64.6% | 93% | 105% | 67.8% | 53.7% | 92.7% | 61.4% | 69% | 57.6% | 108% | 95.9% | 75.9% | 76.9% | 43.1% | 86.3% | viability at 10 µM (786-O): 86.7%; viability at 10 µM (BxPC-3): 68.7%; viability at 10 µM (BCC): 60.2%; viability at 10 µM [11]: 47.1%; viability at 10 µM [12]: 88.6% |
| CC(C)N(CCC(C(N)=O)(c1ccccc1)c1ccccn1)C(C)C (centres unmarked) [Disopyramide Phosphate] | 103% | 96.9% | 94.3% | significant inhibition effect | 109% | 107% | 98.5% | 111% | 99.4% | 105% | 113% | 103% | 90.5% | 77.2% | 87.6% | 115% | 103% | 95.9% | 98.7% | 98.8% | viability at 10 µM (786-O): 102%; viability at 10 µM (BxPC-3): 69.9%; viability at 10 µM (BCC): 110%; viability at 10 µM [11]: 114%; viability at 10 µM [12]: 94% |
| OC(CNCC(O)C1CCc2cc(F)ccc2O1)C1CCc2cc(F)ccc2O1 (centres unmarked) [Nebivolol(Bystolic), Nebivolol] | 52% | 75.6% | 86.2% | significant inhibition effect | 42.1% | 27% | 77% | 52.8% | 49% | 85.3% | 44.8% | 37% | 87.4% | 88.7% | 97.6% | 38% | 86.8% | 26.6% | 66.6% | 66.4% | viability at 10 µM (786-O): 38.3%; viability at 10 µM (BxPC-3): 74.4%; viability at 10 µM (BCC): 55.8%; viability at 10 µM [11]: 44.9%; viability at 10 µM [12]: 81.9% |
| CCC[C@H](N[C@@H](C)C(=O)N1[C@H](C(=O)O)C[C@@H]2CCCC[C@@H]21)C(=O)OCC [Perindopril Erbumine (Aceon), Perindopril Erbumine] | 66.7% | 52.5% | 71.2% | significant inhibition effect | 99.4% | 75.6% | 90.9% | 73.8% | 71.9% | 83.5% | 99.5% | 81.1% | 78.6% | 64.2% | 87.9% | 105% | 79.6% | 87.1% | 74% | 63.8% | viability at 10 µM (786-O): 86.2%; viability at 10 µM (BxPC-3): 50%; viability at 10 µM (BCC): 58.7%; viability at 10 µM [11]: 83.2%; viability at 10 µM [12]: 65% |
| COc1ccc(-c2nc3ccc(C4=NNC(=O)CC4C)cc3[nH]2)cc1 (centres unmarked) [Pimobendan (Vetmedin), Pimobendan] | 34% | 51.1% | 70.7% | significant inhibition effect | 87.2% | 53.9% | 62.8% | 65.2% | 58.3% | 66.7% | 94.8% | 69.5% | 77.8% | 69.3% | 74.2% | 59.4% | 74.7% | 60.8% | 56.6% | 75% | viability at 10 µM (786-O): 39.6%; viability at 10 µM (BxPC-3): 51.9%; viability at 10 µM (BCC): 49.6%; viability at 10 µM [11]: 44.4%; viability at 10 µM [12]: 53.6% |
